From patent US5258406A, “Sulfonimidamides” (priority 1992, dated 1993)
Where “and” joins values, the source holds several entries; their conditions need not be identical. Identical values can stand only once. Like-named read-outs stand apart in the source and are kept apart here.

Tested on: 6C3HED lymphosarcoma
Experiment: animal or person
Type: in vivo
Conditions: for inhibition in vivo at 25 mg/kg: read-out: % inhibition of tumor growth, oral, 25 mg/kg, BIDX 8; for inhibition in vivo at 50 mg/kg: read-out: % inhibition of tumor growth, oral, 50 mg/kg, BIDX 8; for inhibition in vivo at 100 mg/kg: read-out: % inhibition of tumor growth, oral, 100 mg/kg, BIDX 8
Protocol: The compounds were tested in C3H mice bearing a 6C3HED lymphosarcoma, also known as the Gardner lymphosarcoma (GLS), and in a variety of human tumor xenografts in CD1 nu/nu mice, including CX-1, LX-1, HXGC3, and VRC5. The 6C3HED lymphosarcoma was obtained from the Division of Cancer Treatment, National […] Institute, Tumor Bank, maintained at E. G. and G. Mason Research (Worcester, Mass.). The CX-1 human colon carcinoma and the LX-1 human lung carcinoma xenografts were obtained from the National Cancer Institute. The HXGC3 and VRC5 human colon xenografts were obtained from Dr. P. J. Houghton, St. Jude Children's Hospital in Memphis (see Br. J. Cancer, 37, 213 (1978)). First passage tumor was stored in liquid nitrogen using standard techniques. The transplanted tumor was reestablished from the Tumor Bank every six months or as needed. The tumor was maintained by serial passage twice weekly in C3H mice.
In the procedure the tumor was removed from passage animals and minced into 1- to 3-mm square fragments using sterile techniques. Tumor pieces were checked for sterility using both Antibiotic Medium 1 and Brain Heart Infusion (Difco, Detroit, Mich.). Recipient mice were shaved and tumor pieces were implanted subcutaneously in the auxiliary region by trocar. Drug therapy on the appropriate schedule was initiated on the day after tumor implant for 6C3HED and after a seven (7) day delay for xenografts (or other delay as noted in Table 2). The compound being tested was mixed with 2.5% Emulphor EL620 from GAF Corporation (1:40 dilution in saline). Food and water were provided ad libitium. The drug was administered orally in 0.5 ml of 2.5% Emulphor (unless otherwise indicated). The tumor was measured the day after treatment ended with two dimensional measurements (width and length) of the tumor taken using automated digital calipers interfaced to a microcomputer. Approximate weight for the tumor was calculated using the following formula [Worzalla, J. F., et al., Invest. New Drugs, 8, 241 (1990], (tumor weight in mg)=(width in mm)^2 ×(length in mm)/2.
At least one control group of an equal number of mice was treated with the same volume of 2.5% Emulphor only. The percent inhibition was determined by subtracting the ratio of the mean tumor size of the test group relative to the control group from one and multiplying the result times 100.
The results of several experiments in mice bearing a 6C3HED lymphosarcoma (or other tumor where indicated) when the indicated compounds were administered are provided in Table 2. In Table 2, column 1 gives the Example number of the compound used, column 2 lists the dose level in mg/kg, column 3 provides the percent inhibition of tumor growth, column 4 gives the number of mice which died relative to the total number of animals in the group, column 5 gives the method of administration of the compound, and column 6 gives the dosage schedule. The protocol used with other tumors was the same as with the 6C3HED lymphosarcoma.

[1] = Mus musculus, 6C3HED, po, read-out: % inhibition of tumor growth, oral, 150 mg/kg, BIDX 8
[2] = Mus musculus, 6C3HED, po, read-out: % inhibition of tumor growth, oral, 300 mg/kg, BIDX 8

Row | SMILES | inhibition in vivo at 150 mg/kg [1] | inhibition in vivo at 300 mg/kg [2] | Tox/Tot (mice which died / total) (oral, 150 mg/kg, BIDX 8) | Tox/Tot (mice which died / total) (oral, 300 mg/kg, BIDX 8) | inhibition in vivo at 25 mg/kg (Mus musculus, 6C3HED, po) | inhibition in vivo at 50 mg/kg (Mus musculus, 6C3HED, po) | inhibition in vivo at 100 mg/kg (Mus musculus, 6C3HED, po) | Tox/Tot (mice which died / total) (oral, 25 mg/kg, BIDX 8) | Tox/Tot (mice which died / total) (oral, 50 mg/kg, BIDX 8) | Tox/Tot (mice which died / total) (oral, 200 mg/kg, BIDX 8) | Tox/Tot (mice which died / total) (oral, 100 mg/kg, BIDX 8) | also measured
1 | Cc1ccc(S(=N)(=O)NC(=O)Nc2ccc(Br)cc2)cc1 (centres unmarked) [Example 22, N-[[(4-bromophenyl)amino]carbonyl]-4-methylbenzenesulfonimidamide] | 100% | 100% | 0/10 | 3/10 | – | – | – | – | – | – | – | –
2 | Cc1ccc(NC(=O)N=S(N)(=O)c2ccc(C)cc2)cc1 (centres unmarked) [Example 24] | – | – | – | – | – | – | – | – | – | – | – | Tox/Tot (mice which died / total) (IP, 150 mg/kg, DX 8): 0/10; Tox/Tot (mice which died / total) (IP, 300 mg/kg, DX 8): 0/10; inhibition in vivo at 150 mg/kg (Mus musculus, 6C3HED, ip, read-out: % inhibition of tumor growth, IP, 150 mg/kg, DX 8): 31%; inhibition in vivo at 300 mg/kg (Mus musculus, 6C3HED, ip, read-out: % inhibition of tumor growth, IP, 300 mg/kg, DX 8): 52%; inhibition in vivo at 150 mg/kg (Mus musculus, 6C3HED, po, read-out: % inhibition of tumor growth, oral, 150 mg/kg, DX 8): 10%; inhibition in vivo at 300 mg/kg (Mus musculus, 6C3HED, po, read-out: % inhibition of tumor growth, oral, 300 mg/kg, DX 8): 40%; Tox/Tot (mice which died / total) (oral, 150 mg/kg, DX 8): 0/10; Tox/Tot (mice which died / total) (oral, 300 mg/kg, DX 8): 0/10
3 | NS(=O)(=NC(=O)Nc1ccc(Cl)cc1)c1ccc(Cl)cc1 (centres unmarked) [Example 27] | – | – | – | – | 39% | 80% | 100% | 0/10 | 0/10 | 10/10 | – | % inhibition of tumor growth (oral, 100 mg/kg, BIDX 8): 94%; % inhibition of tumor growth (oral, 200 mg/kg, BIDX 8): TOX
4 | NS(=O)(=NC(=O)Nc1ccc(Cl)cc1)c1ccc(Br)cc1 (centres unmarked) [Example 30] | 99% | – | 3/10 and 1/10 | 10/10 | – | 55% | – | – | 0/10 | – | – | inhibition in vivo at 9 mg/kg (Mus musculus, 6C3HED, po, read-out: % inhibition of tumor growth, oral, 9.00 mg/kg, BIDX 8): 4%; inhibition in vivo at 18.75 mg/kg (Mus musculus, 6C3HED, po, read-out: % inhibition of tumor growth, oral, 18.75 mg/kg, BIDX 8): 19%; inhibition in vivo at 37.5 mg/kg (Mus musculus, 6C3HED, po, read-out: % inhibition of tumor growth, oral, 37.5 mg/kg, BIDX 8): 42%; inhibition in vivo at 75 mg/kg (Mus musculus, 6C3HED, po, read-out: % inhibition of tumor growth, oral, 75 mg/kg, BIDX 8): 67%; Tox/Tot (mice which died / total) (oral, 9.00 mg/kg, BIDX 8): 0/10; Tox/Tot (mice which died / total) (oral, 18.75 mg/kg, BIDX 8): 1/10; Tox/Tot (mice which died / total) (oral, 37.5 mg/kg, BIDX 8): 1/10; Tox/Tot (mice which died / total) (oral, 75 mg/kg, BIDX 8): 0/10; % inhibition of tumor growth (oral, 150 mg/kg, BIDX 8): 89%; % inhibition of tumor growth (oral, 300 mg/kg, BIDX 8): TOX
5 | CCc1ccc(S(=N)(=O)NC(=O)Nc2ccc(Cl)cc2)cc1 (centres unmarked) [Example 33, N-[[(4-chlorophenyl)amino]carbonyl]-4-ethylbenzenesulfonimidamide] | 100% | 100% | 8/10 | 8/10 | 91% | 98% | 99% | 2/10 | 1/10 | – | 0/10 | inhibition in vivo at 6.25 mg/kg (Mus musculus, 6C3HED, po, read-out: % inhibition of tumor growth, oral, 6.25 mg/kg, BIDX 8): 36%; inhibition in vivo at 12.5 mg/kg (Mus musculus, 6C3HED, po, read-out: % inhibition of tumor growth, oral, 12.5 mg/kg, BIDX 8): 60%; Tox/Tot (mice which died / total) (oral, 6.25 mg/kg, BIDX 8): 0/10; Tox/Tot (mice which died / total) (oral, 12.5 mg/kg, BIDX 8): 0/9
6 | Cc1cc(C)cc(S(N)(=O)=NC(=O)Nc2ccc(Cl)cc2)c1 (centres unmarked) [Example 39] | – | – | – | – | – | – | 44% | – | – | 0/10 | 0/10 | inhibition in vivo at 200 mg/kg (Mus musculus, 6C3HED, po, read-out: % inhibition of tumor growth, oral, 200 mg/kg, BIDX 8): 77%
